Results published in patent US20210346359A1, “Use of CFTR Modulators For Treating Cerebrovascular Conditions” (Qanatpharma AG, priority 2018, published 2021).
“Also recorded” adds a separate entry of the source.

What was measured:
CFTR = CFTR (Mus musculus, UniProt P26361); assay: Western blot of CFTR protein in cerebral arteries of naïve mice treated in vivo; set-up: Cerebral artery lysates were prepared by grinding artery samples in lysis buffer; from tissue; host or cells: cerebral arteries of male wild-type C57BL/6N mice (naïve, heart failure or subarachnoid hemorrhage models); conditions: 3 mg/kg daily for 2 days, vs vehicle controls
Chain of CFTR (P26361 whole entry): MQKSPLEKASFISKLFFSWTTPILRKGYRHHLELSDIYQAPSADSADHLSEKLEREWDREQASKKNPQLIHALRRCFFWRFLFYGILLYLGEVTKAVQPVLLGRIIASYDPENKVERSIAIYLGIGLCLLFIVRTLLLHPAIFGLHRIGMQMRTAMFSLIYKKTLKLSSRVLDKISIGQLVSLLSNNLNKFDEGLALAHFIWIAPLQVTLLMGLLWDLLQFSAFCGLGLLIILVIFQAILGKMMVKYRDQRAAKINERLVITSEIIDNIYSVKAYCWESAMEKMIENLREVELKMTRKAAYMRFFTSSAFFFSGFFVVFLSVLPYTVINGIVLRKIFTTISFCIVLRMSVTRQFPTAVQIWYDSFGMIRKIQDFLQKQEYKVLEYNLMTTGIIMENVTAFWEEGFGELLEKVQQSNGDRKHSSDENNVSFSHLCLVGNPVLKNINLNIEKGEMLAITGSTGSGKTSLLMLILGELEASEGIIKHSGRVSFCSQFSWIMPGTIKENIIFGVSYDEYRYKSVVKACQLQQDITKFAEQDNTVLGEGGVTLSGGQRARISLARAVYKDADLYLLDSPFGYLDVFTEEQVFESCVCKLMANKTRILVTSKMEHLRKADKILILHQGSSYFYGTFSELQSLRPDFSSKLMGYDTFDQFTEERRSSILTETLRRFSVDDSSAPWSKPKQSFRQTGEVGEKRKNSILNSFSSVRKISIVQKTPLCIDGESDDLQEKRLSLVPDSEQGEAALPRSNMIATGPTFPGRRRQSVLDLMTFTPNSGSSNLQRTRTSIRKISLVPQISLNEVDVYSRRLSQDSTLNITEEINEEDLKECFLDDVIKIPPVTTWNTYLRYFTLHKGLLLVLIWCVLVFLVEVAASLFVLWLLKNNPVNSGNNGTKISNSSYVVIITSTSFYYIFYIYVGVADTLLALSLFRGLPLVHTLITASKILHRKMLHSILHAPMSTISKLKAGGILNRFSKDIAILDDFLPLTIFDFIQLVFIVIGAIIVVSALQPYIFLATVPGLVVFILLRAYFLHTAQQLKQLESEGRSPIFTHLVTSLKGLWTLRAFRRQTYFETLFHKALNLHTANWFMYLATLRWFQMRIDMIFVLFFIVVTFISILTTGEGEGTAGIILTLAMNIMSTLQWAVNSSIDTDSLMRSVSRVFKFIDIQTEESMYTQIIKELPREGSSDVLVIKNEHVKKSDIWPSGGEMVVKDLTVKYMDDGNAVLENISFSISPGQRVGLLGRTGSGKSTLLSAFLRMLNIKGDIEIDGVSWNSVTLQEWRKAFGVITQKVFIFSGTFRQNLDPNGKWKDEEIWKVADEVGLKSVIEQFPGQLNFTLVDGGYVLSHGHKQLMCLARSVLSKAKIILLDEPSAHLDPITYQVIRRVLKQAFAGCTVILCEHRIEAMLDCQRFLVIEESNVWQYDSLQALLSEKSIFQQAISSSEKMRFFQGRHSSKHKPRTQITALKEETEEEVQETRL
Description: Western blots for CFTR were completed as previously described (12, 18). Cerebral artery lysates were prepared by grinding artery samples in lysis buffer containing 50 mM Tris (pH 7.3), 150 mM NaCl, 2 mM […], 0.1% Triton-X-100, 0.1% […] and protease inhibitors; the same lysis buffer was used to prepare cell culture lysates. Following lysis, the samples were centrifuged (10 minutes at 13,500 g; at 4° C.) to remove insoluble material. Immediately prior to polyacrylamide electrophoresis, additional SDS (to 2% final concentration), glycerol (to 2% final concentration), β-mercaptoethanol (to 2% final concentration) and dithiothreitol (2 mM final concentration) were added. Proteins were separated electrophoretically on 7% acrylamide gels and transferred onto polyvinylidene difluoride (PVDF) membranes. […]
The primary antibodies were conjugated with either peroxidase-labeled donkey anti-rabbit IgG (GE Healthcare Amersham (Piscataway, USA) cat# NA934) or peroxidase-labeled goat anti-mouse IgG (GE Healthcare Amersham cat# NA931) secondary antibodies. […] Developed films were evaluated densitometrically using “Image J” software (freely available from the NIH); digital images were evaluated with Image Lab software (Bio-Rad). […]

CFTR mRNA = assay: Quantitative PCR of CFTR mRNA in cerebral arteries of naïve mice treated in vivo; set-up: species or system mouse; conditions: 3 mg/kg daily for 2 days, vs vehicle controls
From the text: Resistance artery RNA was isolated with Norgen Biotek (Thorold, Canada) “Total RNA Purification Micro” spin columns, using the proteinase K digestion and DNA removal procedures, as directed by the manufacturer's instructions. The eluted RNA was quantified with an Agilent Technologies RNA 6000 Pico Kit and Bioanalyzer; the analysis confirmed that high-quality RNA was retrieved from the artery tissue samples (RNA Integrity [RIN]: Cerebral=8.4±0.1, n=5; Cremaster=8.2±0.4, n=6). Isolation of RNA from Baby Hamster Kidney fibroblast cells followed the same procedure, with the omission of the proteinase K digestion step. […]
Quantitative FOR was performed using an Applied Biosystems ViiA™ 7 Real Time FCR system and Power SYBR® Green FCR master mix (both distributed by lnvitrogen Life Technologies). […] Gene targets were assessed in triplicate, using 1 ng of cDNA generated from the reverse transcription; negative controls received water. […] Transcript expression levels in mouse tissues were calculated from the DCt values relative to the standard housekeeping gene hydroxymethylbilane synthase (HMBS). To confirm that HMBS was reliable for normalization, transcript expression levels were also calculated from the DCt values relative to glucose-6-phosphate dehydrogenase (G6PD), which returned similar results. […]

[1] = test system: olfactory cerebral arteries; assay: Phenylephrine responses of isolated olfactory cerebral arteries; assay type: in vivo, mouse; conditions: for phenylephrine dose-response relationship, SAH vs SAH+treatment: not normalized; for log EC50 of phenylephrine response: olfactory cerebral arteries, SAH+treatment group, log scale
Description: Isolation and functional assessment of resistance arteries: Mouse olfactory (a first branch of the anterior cerebral artery) and PCAs were carefully dissected, cannulated onto micropipettes, stretched to their in vivo lengths and pressurized to 45 mmHg, as previously described (3,6); mouse skeletal muscle resistance arteries were dissected from the cremaster muscle, cannulated and pressurized to 60 mmHg. All functional experiments were conducted in 3-morpholinopropanesulfonic acid (MOPS) buffered saline at 37° C. with no perfusion. Vasomotor responses to phenylephrine (5 μmol/L for posterior cerebral arteries, 10 μmol/L for cremaster skeletal muscle arteries) provided an assessment of vessel viability at the beginning and end of each experiment. Arteries failing to show ≥25% constriction to phenylephrine were excluded.
Myogenic tone was calculated as the percent constriction in relation to the maximal diameter at each respective transmural pressure: tone (% of diamax)=[(diamax−diaactive)/diamax]×100, where diaactive is the vessel diameter in MOPS containing Ca^2+ and diamax is the diameter in Ca^2+-free MOPS. Analyses of vasomotor responses to phenylephrine used the same calculation, only in this case, diaactive represents the vessel diameter at steady state following application of the given agent and diamax represents the maximal diameter measured under Ca^2+-free conditions.

[2] = olfactory cerebral arteries from SAH mice, 3 mg/kg i.p. daily for 2 days, 3 mg/kg

Row | CFTR protein expression in cerebral arteries (CFTR) | log EC50 of phenylephrine response [1] | SMILES | cerebral artery CFTR mRNA expression (CFTR mRNA) | phenylephrine dose-response relationship ([1]; olfactory cerebral arteries from CFTR knockout mice, 3 mg/kg i.p. daily for 2 days, 3 mg/kg) | phenylephrine dose-response relationship normalized to basal tone, SAH vs SAH+C18 [1, 2] | phenylephrine dose-response relationship, SAH vs SAH+treatment [1, 2] | phenylephrine dose-response relationship ([1]; olfactory cerebral arteries from sham-operated mice, 3 mg/kg i.p. daily for 2 days, 3 mg/kg) | CFTR protein expression in cerebral arteries (CFTR; 3 mg/kg)
1 | higher | −6.61±0.31 | O=C(Nc1ncc(C(c2ccccc2Cl)N2CCC(O)C2)s1)C1(c2ccc3c(c2)OCO3)CC1 (centres unmarked) [C18, 1-(benzo[d][1,3]dioxol-5-yl)-N-(5-((2-chlorophenyl)(3-hydroxypyrrolidin-1-yl)methyl)thiazol-2-yl)cyclopropanecarboxamide] | not affected; also recorded: does not influence | not affected; also recorded: does not alter | curves overlap; also recorded: minimal | expected baseline shift; also recorded: not statistically different | does not affect; also recorded: does not alter | 
2 |  | −5.90±0.18 | Cc1ccc(NC(=O)C2(c3ccc4c(c3)OC(F)(F)O4)CC2)nc1-c1cccc(C(=O)O)c1 [lumacaftor] | unaffected; also recorded: does not influence |  |  | does not affect; also recorded: does not alter |  | increases CFTR protein expression; also recorded: higher
